Measured values reported in PMC3510438, “The transmembrane tyrosines Y56, Y91 and Y167 play important roles in determining the affinity and transport rate of the rabbit proton-coupled peptide transporter PepT1” (The International Journal of Biochemistry & Cell Biology, 2009).
Positions count from the first letter of the chain named. Where a SMILES comes first, the peptide text is derived from it.

Legend:
Y91F-rPepT1 = target: T1, Y91F-rPepT1 (Oryctolagus cuniculus, UniProt P36836, Y91F); assay: Competition of [3H]-D-Phe-L-Gln uptake into Xenopus oocytes, Ki; format: cell-based, rabbit; conditions: against 0.4 μM [3H]-D-Phe-L-Gln uptake
T1 construct: expressed in transfected cells; host or cells: Xenopus laevis oocytes injected with cRNA
T1 sequence (P36836 1-707 Y91F): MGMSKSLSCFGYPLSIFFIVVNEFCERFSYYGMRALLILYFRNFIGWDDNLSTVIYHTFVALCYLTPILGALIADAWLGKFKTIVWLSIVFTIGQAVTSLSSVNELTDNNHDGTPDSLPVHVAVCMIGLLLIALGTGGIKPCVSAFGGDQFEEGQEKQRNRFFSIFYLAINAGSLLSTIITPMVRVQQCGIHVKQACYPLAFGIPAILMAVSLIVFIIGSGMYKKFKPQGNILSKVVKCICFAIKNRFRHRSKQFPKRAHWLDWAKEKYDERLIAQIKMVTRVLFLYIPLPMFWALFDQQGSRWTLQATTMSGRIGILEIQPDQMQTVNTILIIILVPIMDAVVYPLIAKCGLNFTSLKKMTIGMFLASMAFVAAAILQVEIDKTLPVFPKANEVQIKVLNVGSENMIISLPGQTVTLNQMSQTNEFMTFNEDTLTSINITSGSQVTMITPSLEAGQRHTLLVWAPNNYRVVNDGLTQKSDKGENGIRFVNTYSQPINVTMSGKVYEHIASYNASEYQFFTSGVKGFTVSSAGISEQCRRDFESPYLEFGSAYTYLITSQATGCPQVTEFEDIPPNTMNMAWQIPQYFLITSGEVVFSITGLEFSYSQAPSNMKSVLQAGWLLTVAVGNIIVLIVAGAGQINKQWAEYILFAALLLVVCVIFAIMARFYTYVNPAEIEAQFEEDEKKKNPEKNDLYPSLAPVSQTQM
Description: (§1) rPepT1 constructs were linearised with XbaI (New England Biolabs, UK) and cRNA generated by in vitro transcription (T7 mMessage mMachine, Ambion, Cambridgeshire, UK). Xenopus laevis oocytes were obtained under MS222 anaesthesia (0.2%, w/v) in accordance with the UK Animals (Scientific Procedures) Act, 1986, and maintained at 18 °C in modified Barth's medium (88 mM NaCl, 1 mM KCl, 0.82 mM MgSO4, 2.4 mM NaHCO3, 0.42 mM CaCl2, 10 mM Hepes, 5 mM sodium pyruvate, 50 μg ml^−1 gentamicin (Fluka, Poole, UK), adjusted to pH 7.6 with 1 M NaOH). Transport measurements were performed at least 72 h after micro-injection of oocytes with 27nl cRNA (1 μg/μl), with medium changed daily.
(§2) Uptake of [^3H]-D-Phe-L-Gln (17.4 Ci/mmole, custom synthesised, Cambridge Research Biochemicals, Stockton-on-Tees, UK) was performed as previously described ([Meredith, 2004]). Briefly, 5 oocytes were incubated in 100 μl of uptake medium (95 mM NaCl, 2 mM KCl, 1 mM CaCl2, 0.42 mM MgCl2, 10 mM Tris/Hepes pH 7.4 or Tris/Mes pH 5.5) with tracer (0.4 μM) [^3H]-D-Phe-L-Gln. After incubation, the oocytes were washed sequentially five times in 1 ml of ice-cold 120 mM NaCl solution, lysed individually with 100 μl 2% (w/v) SDS and liquid scintillation counted. As a control non-injected oocytes were also incubated in uptake medium with D-Phe-L-Gln as above.
(§3) The affinity of wild-type and mutant rPepT1 transporters were assessed by competition studies with 0.4 μM [^3H]-D-Phe-L-Gln and Gly-L-Gln present in the uptake medium in concentrations from 0 to 2 mM using the protocol above, and the Ki calculated using the method of [Deves and Boyd (1989)].

Y91Q-rPepT1 = target: T2, Y91Q-rPepT1 (Oryctolagus cuniculus, UniProt P36836, Y91Q); assay: as above; format: cell-based, rabbit; conditions: pHout 7.4; against 0.4 μM [3H]-D-Phe-L-Gln uptake
T2 construct: expressed in transfected cells; host or cells: Xenopus laevis oocytes injected with cRNA
T2 sequence (P36836 1-707 Y91Q): T1 sequence (P36836 1-707 Y91F) with F91Q
Description: as §1, §2, §3

## NCC(=O)N[C@@H](CCC(N)=O)C(=O)O [Gly-L-Gln] (H-Gly-Gln-OH)
Y91F-rPepT1; pHout 5.5
  Ki: 1400 ± 310 µM
Y91F-rPepT1; pHout 7.4
  Ki: 460 ± 90 µM
Y91Q-rPepT1
  Ki: 30 ± 5 µM
